Results taken from patent publication US20240335443A1, “IMIDAZOLOPYRIDAZINE OR PYRAZOLOPYRIMIDINE COMPOUNDS AND COMPOSITIONS” (Anrui Biomedical Technology (Guangzhou) Co., Ltd., priority 2021, published 2024).
Read-outs that look alike come from different tables or passages of the source.

Experiments:
[1] = test system: IL-23 induced STAT3 in HEK-Blue™ IL-23 cells; assay: IL-23 induced STAT3 QUANTI-Blue reporter assay in HEK-Blue IL-23 cells; format: cell-based; settings: IL-23 0.1 ng/mL, SEAP levels, class symbols, read-out: IL23 reporter assay (IC50 nM)
Description: Biological Example 2. IL-23 Induced STAT3 QUANTI-Blue in HEK-Blue™ IL-23 Cells
HEK-Blue™ IL-23 cells were prepared at 2×10^5 cells/ml for adding 5000 cell/well and incubate plates containing compounds+cells for 1 hour at 37° C. Prepare IL-23 (treatment at final conc. 0.1 ng/mL) during incubation and add 2 ul per well of prepared cytokine in media to appropriate wells. The plate is incubated for overnight at 37° C. The next day, QUANTI-Blue solution is prepared. 18 ul of QUANTI-Blue solution per well is added into a new 384-well clear flat bottom plate, then add 2 ul of induced and treated HEK-Blue cell supernatant from overnight plate. Incubate the plate at 37° C. for 2 hours and determine SEAP levels.

[2] = molecular target: T1, N-terminal His-tagged TYK2 pseudokinase domain (Homo sapiens, UniProt P29597); assay: TYK2 JH2 domain SPA binding assay; settings: displacement of H3 probe (20 nM), 30 min room temperature; class symbols
T1 construct: the N-terminal His-tagged TYK2 pseudokinase domain; His (N); purchased Pharmaron
Description: TYK2 JH2 Domain Binding Assay
After incubating at room temperature for 30 min, the inhibition was calculated by the displacement of [3H] 3 binding as determined by scintillation counting. Dose-response curves were generated to determine the concentration required to inhibit H3 probe binding by […] (IC50).

[3] = HEK-Blue IL-23, HEK-Blue IL-23 cells

T1 sequence (P29597 589-875 limits assumed): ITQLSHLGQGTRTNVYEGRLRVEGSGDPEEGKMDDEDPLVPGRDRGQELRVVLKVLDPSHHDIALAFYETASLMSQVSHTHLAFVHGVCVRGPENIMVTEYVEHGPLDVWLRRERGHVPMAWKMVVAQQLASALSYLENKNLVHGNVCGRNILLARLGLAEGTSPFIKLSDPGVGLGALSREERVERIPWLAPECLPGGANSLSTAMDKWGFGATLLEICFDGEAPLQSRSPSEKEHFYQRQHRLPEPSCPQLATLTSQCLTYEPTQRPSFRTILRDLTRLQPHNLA

SMILES | IC50 [2] | IC50 [1, 3] | IC50 ([1]; HEK-Blue IL-23 cells)
[2H]c1onc2c1CCC2NC(=O)c1cnc2c(NC)cc(Nc3cccn(-c4ccccn4)c3=O)nn12 (centres unmarked) [Compound 8, N-(5,6-dihydro-4H-cyclopenta[c]isoxazol-6-yl-3-d)-8-(methylamino)-6-((2-oxo-2H-[1,2′-bipyridin]-3-yl)amino)imidazo[1,2-b]pyridazine-3-carboxamide] | < 10 nM | < 10 nM | –
CNc1cc(Nc2cccn(-c3ccccn3)c2=O)nc2c(C(=O)NC3CCn4ccnc43)cnn12 (centres unmarked) [Compound 18, N-(6,7-dihydro-5H-pyrrolo[1,2-a]imidazol-7-yl)-7-(methylamino)-5-((2-oxo-2H-[1,2′-bipyridin]-3-yl)amino)pyrazolo[1,5-a]pyrimidine-3-carboxamide] | < 10 nM | < 10 nM | –
CNc1cc(Nc2cccn(-c3ccccn3)c2=O)nn2c(C(=O)NC3CCc4conc43)cnc12 (centres unmarked) [Compound 7, N-(5,6-dihydro-4H-cyclopenta[c]isoxazol-6-yl)-8-(methylamino)-6-((2-oxo-2H-[1,2′-bipyridin]-3-yl)amino)imidazo[1,2-b]pyridazine-3-carboxamide] | < 10 nM | < 10 nM | –
[2H]c1onc2c1CCC2NC(=O)c1cnn2c(NC)cc(Nc3cccn(-c4ccccn4)c3=O)nc12 (racemic) [Compound 38] | 10 to 100 nM | < 10 nM | –
[2H]C([2H])([2H])Nc1cc(Nc2cccn([C@@H]3C[C@H]4CCO[C@H]43)c2=O)nn2c(C(=O)N[C@@H]3C[C@H]4CCO[C@H]43)cnc12 [Compound 14, 6-((1-((1R,5S,7R)-2-oxabicyclo[3.2.0]heptan-7-yl)-2-oxo-1,2-dihydropyridin-3-yl)amino)-N-((1R,5S,7R)-2-oxabicyclo[3.2.0]heptan-7-yl)-8-((methyl-d3)amino)imidazo[1,2-b]pyridazine-3-carboxamide] | < 10 nM | < 10 nM | –
[2H]C([2H])([2H])Nc1cc(Nc2cccn(-c3ncccc3F)c2=O)nn2c(C(=O)N[C@@H]3C[C@H]4CCO[C@H]43)cnc12 [Compound 5, N-((1R,5S,7R)-2-oxabicyclo[3.2.0]heptan-7-yl)-6-((3′-fluoro-2-oxo-2H-[1,2′-bipyridin]-3-yl)amino)-8-((methyl-d3)amino)imidazo[1,2-b]pyridazine-3-carboxamide] | 10 to 100 nM | < 10 nM | –
CNc1cc(Nc2cccn(CC3CCCO3)c2=O)nn2c(C(=O)N[C@@H]3C[C@@H]3F)cnc12 (some centres unmarked) [Compound 107] | 10 to 100 nM | 10 to 100 nM | –
[2H]C([2H])([2H])Nc1cc(Nc2cccn([C@H]3C[C@H](OC([2H])([2H])[2H])C3)c2=O)nc2c(C(=O)N[C@@H]3C[C@@H]3F)cnn12 [Compound 100] | 10 to 100 nM | 10 to 100 nM | –
CNc1cc(Nc2cccc3c2OCCC3)nn2c(C(=O)NCc3ncco3)cnc12 [Compound 20] | < 10 nM | < 10 nM | –
CNc1cc(Nc2cccn(C3C[C@H]4CC[C@@H](C3)O4)c2=O)nn2c(C(=O)N[C@@H]3C[C@H]4CCO[C@H]43)cnc12 (stereo partly drawn) [Compound 13, 6-((1-(cis-8-oxabicyclo[3.2.1]octan-3-yl)-2-oxo-1,2-dihydropyridin-3-yl)amino)-N-((1R,5S,7R)-2-oxabicyclo[3.2.0]heptan-7-yl)-8-(methylamino)imidazo[1,2-b]pyridazine-3-carboxamide] | 10 to 100 nM | < 10 nM | –
CNc1cc(Nc2cccn([C@H]3C[C@H](OC)C3)c2=O)nn2c(C(=O)N[C@@H]3C[C@@H]3F)cnc12 [Compound 99] | 10 to 100 nM | 10 to 100 nM | –
[2H]C([2H])([2H])Nc1cc(Nc2cccn([C@H]3C[C@H](OC([2H])([2H])[2H])C3)c2=O)nc2c(C(=O)N[C@@H]3C[C@H]4CCO[C@H]43)cnn12 [Compound 19, N-((1R,5S,7R)-2-oxabicyclo[3.2.0]heptan-7-yl)-5-((1-((1r,3r)-3-(methoxy-d3)cyclobutyl)-2-oxo-1,2-dihydropyridin-3-yl)amino)-7-((methyl-d3)amino)pyrazolo[1,5-a]pyrimidine-3-carboxamide] | 10 to 100 nM | 10 to 100 nM | –
CNc1cc(Nc2cccn(C3CCOCC3)c2=O)nn2c(C(=O)N[C@@H]3C[C@H]4CCO[C@H]43)cnc12 [Compound 66] | 10 to 100 nM | < 10 nM | –
CNc1cc(Nc2cccc3c2OCCC3)nn2c(C(=O)NC3CCn4ccnc43)cnc12 (centres unmarked) [Compound 6, 6-(chroman-8-ylamino)-N-(6,7-dihydro-5H-pyrrolo[1,2-a]imidazol-7-yl)-8-(methylamino)imidazo[1,2-b]pyridazine-3-carboxamide] | < 10 nM | < 10 nM | –
CNc1cc(Nc2cccn(-c3cc(C)n(C)n3)c2=O)nn2c(C(=O)N[C@@H]3C[C@H]4CCO[C@H]43)cnc12 [Compound 55] | 10 to 100 nM | 10 to 100 nM | –
CNc1cc(Nc2cccc(N3CCCC3=O)n2)nn2c(C(=O)NC(C)c3ncco3)cnc12 (racemic) [Compound 28] | 10 to 100 nM | < 10 nM | –
CNc1cc(Nc2cccn(-c3ccccn3)c2=O)nc2c(C(=O)NC3CCc4conc43)cnn12 (racemic) [Compound 37] | 10 to 100 nM | < 10 nM | –
[2H]C([2H])([2H])Nc1cc(Nc2cccn([C@H]3C[C@H](OC([2H])([2H])[2H])C3)c2=O)nn2c(C(=O)N[C@@H]3C[C@H]4CCO[C@H]43)cnc12 [Compound 84] | 10 to 100 nM | 10 to 100 nM | –
CNc1cc(Nc2cccn(C3C[C@H]4CC[C@@H](C3)O4)c2=O)nc2c(C(=O)N[C@@H]3C[C@@H]3F)cnn12 (some centres unmarked) [Compound 81] | 10 to 100 nM | 10 to 100 nM | –
[2H]C([2H])([2H])Nc1cc(Nc2cccn(-c3ccn(C([2H])([2H])[2H])n3)c2=O)nn2c(C(=O)N[C@@H]3C[C@@H]3F)cnc12 [Compound 59] | 10 to 100 nM | < 10 nM | –
[2H]C([2H])([2H])n1ccc(-n2cccc(Nc3cc(NC)c4ncc(C(=O)N[C@@H]5C[C@@H]5F)n4n3)c2=O)n1 [Compound 58] | 10 to 100 nM | 10 to 100 nM | –
CNc1cc(Nc2cccn(-c3ccccn3)c2=O)nc2c(C(=O)NC3CCn4ncnc43)cnn12 (centres unmarked) [Compound 17, N-(6,7-dihydro-5H-pyrrolo[1,2-b][1,2,4]triazol-7-yl)-7-(methylamino)-5-((2-oxo-2H-[1,2′-bipyridin]-3-yl)amino)pyrazolo[1,5-a]pyrimidine-3-carboxamide] | 10 to 100 nM | 10 to 100 nM | –
CNc1cc(Nc2cccc3c2OCCC3)nn2c(C(=O)NCc3nccn3C)cnc12 [Compound 21] | 10 to 100 nM | < 10 nM | –
[2H]C([2H])([2H])Nc1cc(Nc2cccn(C3CCCC4(COC4)C3)c2=O)nn2c(C(=O)N[C@@H]3C[C@@H]3F)cnc12 (single isomer, unassigned) [Compound 75b] | 10 to 100 nM | – | 10 to 100 nM

Second part, led by results:

IC50 [2] | SMILES | IC50 [1, 3] | IC50 ([1]; HEK-Blue IL-23 cells)
100 to 1000 nM | CNc1cc(Nc2cccn(C3CC4CCOC43)c2=O)nn2c(C(=O)N[C@@H]3C[C@@H]3F)cnc12 (single isomer, unassigned) [Compound 105a] | 10 to 100 nM | –
10 to 100 nM | [2H]C([2H])([2H])Nc1cc(Nc2cccn(C3CC4OCCC43)c2=O)nn2c(C(=O)N[C@@H]3C[C@@H]3F)cnc12 (single isomer, unassigned) [Compound 101a] | 10 to 100 nM | –
10 to 100 nM | [2H]C([2H])([2H])Nc1cc(Nc2cccn(C3CC4(CCCO4)C3)c2=O)nn2c(C(=O)N[C@@H]3C[C@@H]3F)cnc12 (single isomer, unassigned) [Compound 104a] | 10 to 100 nM | –
10 to 100 nM | [2H]C([2H])([2H])Nc1cc(Nc2cccn(C3CC4OCCC43)c2=O)nn2c(C(=O)N[C@@H]3C[C@H]4CCO[C@H]43)cnc12 (single isomer, unassigned) [Compound 94a] | 10 to 100 nM | –
10 to 100 nM | [2H]C([2H])([2H])Nc1cc(Nc2cccn(C3CC4OCCC43)c2=O)nn2c(C(=O)N[C@@H]3C[C@@H]3F)cnc12 (single isomer, unassigned) [Compound 101b] | – | 10 to 100 nM
10 to 100 nM | [2H]C([2H])([2H])Nc1cc(Nc2cccn(C3CC4(CCOC4)C3)c2=O)nc2c(C(=O)N[C@@H]3C[C@@H]3F)cnn12 (single isomer, unassigned) [Compound 103a] | 10 to 100 nM | –
100 to 1000 nM | CNc1cc(Nc2cccn([C@H]3C[C@H](OC)C3)c2=O)nn2c(C(=O)NC3CCC4CCOC43)cnc12 (single isomer, unassigned) [Compound 88b] | – | 100 to 1000 nM
10 to 100 nM | [2H]C([2H])([2H])Nc1cc(Nc2cccn(C3CC4(CCCO4)C3)c2=O)nn2c(C(=O)N[C@@H]3C[C@@H]3F)cnc12 (single isomer, unassigned) [Compound 104b] | – | 10 to 100 nM
10 to 100 nM | [2H]C([2H])([2H])OC1(C)CC(n2cccc(Nc3cc(NC)c4ncc(C(=O)N[C@@H]5C[C@H]6CCO[C@H]65)n4n3)c2=O)C1 (single isomer, unassigned) [Compound 93b] | – | 10 to 100 nM
10 to 100 nM | CNc1cc(Nc2cccn(C3C[C@H]4CC[C@@H](C3)O4)c2=O)nn2c(C(=O)N[C@@H]3C[C@@H]3F)cnc12 (single isomer, unassigned) [Compound 79b] | – | < 10 nM
